Source: patent US20080221082A1, “Ligands of Integrin Receptors” (priority 2000, published 2008)

What was measured:
[1] = target: T1, integrin αvβ3 (Homo sapiens, UniProt P05106+P06756); experiment: Integrin αvβ3 assay (competition between vitronectin and the test substance for binding to solid phase-bound integrin αvβ3); conditions: integrin αvβ3 from human placenta; human vitronectin as competing ligand; result in words only
T1 construct: from tissue; host or cells: human placenta
Method: For the identification and assessment of integrin αvβ3 ligands, a test system was used which was based on competition between the natural integrin αvβ3 ligand vitronectin and the test substance for binding to solid phase-bound integrin αvβ3.
• Microtiter plates coated with 250 ng/ml of integrin αvβ3 in 0.05 M NaHCO3 pH 9.2; 0.1 ml/well; • saturation with 1% powdered milk/assay buffer; 0.3 ml/well; 0.5 h/RT • 3× washing with 0.05% Tween 20/assay buffer • test substance in 0.1% powdered milk/assay buffer, 50 μl/well+0 μg/ml or 2 μg/ml of human vitronectin (Boehringer Ingelheim T007) in 0.1% powdered milk/assay buffer, 50 μl/well; 1 h/RT • 3× washing with 0.05% Tween 20/assay buffer • 1 μg/ml of anti human vitronectin antibody coupled to peroxidase (Kordia SAVN-APHRP) in 0.1% powdered milk/assay buffer; 0.1 ml/well; 1 h/RT • 3× washing with 0.05% Tween 20/assay buffer • 0.1 ml/well of peroxidase substrate • stop reaction with 0.1 ml/well of 2 M H2SO4 • measurement of the absorption at 450 nm
Integrin αvβ3: Human placenta is solubilized with Nonidet and integrin αvβ3 affinity-purified on a GRGDSPK matrix (elution with EDTA). Impurities due to integrin αIIbβ3 and human serum albumin, and the detergent and EDTA are removed by anion-exchange chromatography.
Assay buffer: 50 mM Tris pH 7.5; 100 mM NaCl; 1 mM CaCl2; 1 mM MgCl2; 10 μM MnCl2 […]

Compound: CC(C)(C)OC(=O)CC1CCC(=O)N(CC(=O)NCc2ccc(Nc3nc4ccccc4[nH]3)cc2)c2ccccc21 (centres unmarked) [Example 99, tert-Butyl [1-(2-{[4-(1H-benzimidazole-2-ylamino)benzyl]amino}-2-oxoethyl)-2-oxo-2,3,4,5-tetrahydro-1H-1-benzazepine-5-yl]acetate]
- melting point: 231 °C (dec.)

Compound: O=C(O)CC1CCC(=O)N(CC(=O)NCc2ccc(-c3nc4ccccc4[nH]3)cc2)c2ccccc21 (centres unmarked) [Example VII, [1-(2-{[4-(1H-Benzimidazol-2-yl)benzyl]amino}-2-oxoethyl)-2-oxo-2,3,4,5-tetrahydro-1H-1-benzazepin-5-yl]acetic acid]
- IC50 values (concentration of the ligand at which 50% of the ligand is displaced) [1]: best result
